In patent US9095581B2, “Combinations of MEK inhibitors and Raf kinase inhibitors and uses thereof” (Ardea Biosciences, Inc., priority 2008, dated 2015):

Assays:
Hep3B cells = experiment: In vitro cell proliferation assay of Hep3B cell line, compound A with other anticancer agents (Example 6B); assay type: cell-based, human; details: agent in combination with compound A; 3, 4 or 6 days
Procedure: Cell culture/Growth Inhibition Assay: Human hepatocelluar carcinoma Hep3B cells were obtained from ATCC (Manassas, Va.). Hep3B cells were maintained in EMEM supplemented with 10% fetal bovine serum, penicillin (100 U/ml), and streptomycin (100 μg/ml). Cells were maintained at 37° C., 5% CO2, and 100% humidity. For cell proliferation experiments, cells were plated in white 96-well plates with clear bases at either 3000 cells/100 μl/well, 2000 cells/100 μl/well or 1000 cells/100 μl/well and treated as follows for 3 days, 4 days, or 6 days respectively. […] Following incubation for the indicated time at 37° C., ATP levels were determined using CellTiterGlo (Promega, Madison, Wis.) and reading luminescence values using a Lit Biosystems Analyst HT (Sunnyvale, Calif.). The ATP level for each dose combination was determined in triplicate using independent wells, and the experiment was performed several times. […] For comparison, the dose response for each single agent was also determined. The relative cell proliferation number was determined with the following formula: […]

[1] = test system: human gastric adenocarcinoma cell line AGS; experiment: In vitro cell proliferative activity of AGS cell line (CellTiterGlo ATP levels); assay type: cell-based
Procedure: The effect of compound A in combination with sorafenib was examined in a cell line derived from a human gastric adenocarcinoma, in a cell proliferation assay.
Cell culture/Growth Inhibition Assay: The human gastric adenocarcinoma cell line AGS was obtained from ATCC (Manassas, Va.). AGS cells were maintained in DMEM/F12 supplemented with 10% fetal bovine serum, penicillin (100 U/ml), and streptomycin (100 μg/ml). Cells were maintained at 37° C., 5% CO2, and 100% humidity. For cell proliferation experiments, cells were plated in white 96-well plates with clear bases at 3000 cells/100 μl/well. After 24 hr, cell media was removed and replaced with media containing combinations of 621119 and sorafenib. Following incubation for 48 hours at 37° C., ATP levels were determined using CellTiterGlo (Promega, Madison, Wis.) and reading luminescence values using a LJL Biosystems Analyst HT (Sunnyvale, Calif.). The ATP level for each dose combination was determined in triplicate using independent wells, and the experiment was performed several times. For synergy experiments, either 621119 or sorafenib was dosed at a fixed, subefficacious dose, while the second agent (sorafenib or 621119 respectively) was added across a range of doses. For comparison, the dose response for each single agent was also determined. The relative cell proliferation number was determined with the following formula: […]

Hep3B Hepatoma cells = experiment: In vitro cell proliferation assay of Hep3B cell line (CellTiterGlo ATP levels); assay type: cell-based, human; details: sorafenib alone
Procedure: The effect of compound A in combination with sorafenib was examined in a cell line derived from a human hepatocellular carcinoma in a cell proliferation assay.
Cell culture/Growth Inhibition Assay: Human hepatocelluar carcinoma Hep3B cells were obtained from ATCC (Manassas, Va.). Hep3B cells were maintained in EMEM supplemented with 10% fetal bovine serum, penicillin (100 U/ml), and streptomycin (100 μg/ml). Cells were maintained at 37° C., 5% CO2, and 100% humidity. For cell proliferation experiments, cells were plated in white 96-well plates with clear bases at either 3000 cells/100 μl/well, 2000 cells/100 μl/well or 1000 cells/100 μl/well and treated as follows for 3 days, 4 days, or 6 days respectively. After 24 hr, cell media was removed and replaced with media containing combinations of compound A of formula I and sorafenib. Following incubation for the indicated time at 37° C., ATP levels were determined using CellTiterGlo (Promega, Madison, Wis.) and reading luminescence values using a LJL Biosystems Analyst FIT (Sunnyvale, Calif.). The ATP level for each dose combination was determined in triplicate using independent wells, and the experiment was performed several times. […] For comparison, the dose response for each single agent was also determined. The relative cell proliferation number was determined with the following formula: […]

Row | Compound | synergy with compound A in cell proliferation (Hep3B cells) | further results
1 | Nc1ccn([C@@H]2O[C@H](CO)[C@@H](O)C2(F)F)c(=O)n1 [Gemcitabine] | no synergy | –
2 | Cc1ccc(NC(=O)c2ccc(CN3CCN(C)CC3)cc2)cc1Nc1nccc(-c2cccnc2)n1 [Imatinib] | no synergy | –
3 | CS(=O)(=O)CCNCc1ccc(-c2ccc3ncnc(Nc4ccc(OCc5cccc(F)c5)c(Cl)c4)c3c2)o1 [Lapatinib] | no synergy | –
4 | CCCCCCCCCCCCCCCCCCOP(=O)([O-])OC1CC[N+](C)(C)CC1 [Perifosine] | no synergy | –
5 | O=C(CCCCCCC(=O)Nc1ccccc1)NO [Vorinostat] | no synergy | –
6 | CNC(=O)c1cc(Oc2ccc(NC(=O)Nc3ccc(Cl)c(C(F)(F)F)c3)cc2)ccn1 [sorafenib, 4-[4-[[4-chloro-3-(trifluoromethyl)phenyl]carbamoylamino]phenoxy]-N-methyl-pyridine-2-carboxamide] | – | inhibition of cell proliferation (cell number relative to vehicle) ([1]; sorafenib alone at 5 uM, after 48 hours (FIG. 9B)): little activity; inhibition of cell proliferation (relative cell number) ([1]; sorafenib alone, 5 uM and lower, after 48 hours (FIG. 9A)): little activity; inhibition of cell proliferation (Hep3B Hepatoma cells; 2 μM and lower, after 4 days (FIG. 8C)): little or no inhibition; inhibition of cell proliferation (Hep3B Hepatoma cells; 5 μM and lower, after 3 days (FIG. 8A)): little activity
